Test results: patent US7851000B2, “Taste potentiator compositions and edible confectionery and chewing gum products containing same” (Cadbury Adams USA LLC, priority 2005, dated 2010)

Columns and labels:
[1] = cited from earlier work
[2] = system: expert panel members; test: Sucrose Equivalent Value (SEV), perceived sweetness matched to stock sucrose solutions; type: in vivo; details: for effect on sweetness of sucrose solution (dose response curve): 0 to 1000 ppm in pH 3.2 buffered 5% sucrose solution; for effect on sweetness (SEV) of sucrose solutions, comparison of forms: 500 ppm in pH 3.2 buffered solutions with 0%, 3%, 5%, 7% and 9% sucrose; for SEV (%): 500 ppm potentiator alone in pH 3.2 buffered 5% sucrose solution
Method: One method of measuring the perceived sweetness of a solution is to match it with a stock sucrose solution of known concentration. In the present experiments, the compound of interest is added at a predetermined concentration to a pH 3.2 buffered solution containing 5% sucrose. A number of expert panel members then taste the solution and compare it to a battery of stock sucrose solutions ranging from 3% to 15% at increments of 1%. Each panel member decides which sucrose solution is equisweet with the solution containing the compound of interest. The mean value is then reported as the SEV. Results are reported to 1 decimal place.
In accordance with this methodology, 3-HB was added to a pH 3.2 buffered solution containing 5% sucrose to produce solutions containing from 0 to 1000 ppm 3-HB in 100 ppm increments. […] From FIG. 1 it is apparent that as the dosage of 3-HB increases so does the sweetness of the resultant solution. However the effect is non-linear with each incremental addition having a diminishing effect. The maximum sweetness attainable would appear to be about 7.9% SEV (based on a 5% sucrose solution).
The same methodology as described in Example 7 was repeated with 2,4-DHB in place of 3-HB, to produce the dose response curve for 2,4-DHB (FIG. 2). […] The maximum attainable sweetness would appear to be about 6.7% SEV (based on a 5% sucrose solution).
500 ppm of a sweetener potentiator was added to a pH 3.2 buffered solution containing 5% sucrose and the SEV of the resultant solution determined.
500 ppm of the sweetener potentiator then was added to a 5% sucrose solution containing 500 ppm 3-HB to produce a series of solutions. […] The use of 500 ppm of 3-HB alone results in an SEV of 6.9% whereas in all cases but two (2,4-DHB and 3,4-DHB) the addition of a second sweetener potentiator results in a little change or even a decrease in SEV. This is highly surprising considering that all of the potentiators are shown to have SEVs greater than 5%.
The methodology was repeated to produce a series of solutions containing 500 ppm 2,4-DHB and 500 ppm of a second sweetener potentiator.
500 ppm of 3-HB, 500 ppm of 2,4-DHB and 500 ppm of 3,4-dihydroxybenzoic acid (3,4-DHB) were added to a pH 3.2 buffered solution containing 5% sucrose and the SEV determined. The results are shown in FIG. 7 together with other combinations of 3-HB, 2,4-DHB and 3,4-DHB for comparison. The solution containing the combination of 3-HB and 2,4-DHB (hatched) has a much higher SEV (8.7%) than the combination of either 3,4-DHB and 3-HB (7.6%) or the combination of 3,4-DHB and 2,4-DHB (6.8%). The three-way combination of the embodiment (hatched) is better still with an SEV of 9.8%.
pH 3.2 buffered solutions were prepared containing 0%, 3%, 5%, 7% and 9% sucrose. 500 ppm of 2,4-DHB acid, 500 ppm of the sodium salt of 2,4-DHB and 500 ppm of the potassium salt of 2,4-DHB were added individually to each of the sucrose solutions. The SEV for each of the solutions was then determined.
The SEV of each sweetener solution was then evaluated after the addition 500 ppm of 3-HB, the addition of 500 ppm of 2,4-DHB and the addition of both 500 ppm 3-HB and 2,4-DHB.
500 ppm of 3-aminobenzoic acid and 500 ppm of 4-aminobenzoic acid were individually added to separate pH 3.2 buffered solutions containing 5% sucrose and the SEVs of the resultant solutions were determined. The SEV of 3-aminobenzoic acid was about 7%, i.e., increased the sweetness intensity of 5% sucrose to about 7%. The SEV of 4-aminobenzoic acid was about 5.5-6%, i.e., increased the sweetness intensity of 5% sucrose to about 5.5-6%.

SMILES	effect on sweetness of sucrose solution (dose response curve) [2]	effect on sweetness (SEV) of sucrose solutions, comparison of forms [2]	SEV (%) [2] [%]	also measured
O=C(O)c1ccc(O)cc1O [2,4-DHB, 2,4-dihydroxybenzoic acid]	enhances the sweetness of the sucrose solution	enhances the sweetness of the sucrose solution in every case	–	effect on sweetness of 5% sucrose solution ([1]; 0.2% 2,4-DHB, Canadian Patent No. 1208966): increase in sweetness; effect on sweetness intensity of sucralose and aspartame ([1]; FIGS. 1 and 2 and Tables 1 and 2 of U.S. Pat. No. 6,461,658): slightly inhibitory effect; effect on sweetness delivery profile of sucralose ([1]; U.S. Pat. No. 6,461,658): significantly reducing the length of time during which sucralose sweetness is perceived; effect on sweetness with aspartame ([1]; WO99/15032): increase sweetness synergistically
O=C(O)c1cc(O)c(O)c(O)c1 [3,4,5-THB, 3,4,5-tryhydroxybenzoic acid]	–	–	5.1	–
O=C(O)c1ccc(O)c(O)c1 [3,4-DHB, 3,4-dihydroxybenzoic acid]	–	–	6.4	–
O=C(O)c1cccc(O)c1 [3-HB, 3-hydroxybenzoic acid]	enhances the sweetness of the sucrose solution	–	–	effect on sweetness of saccharin solution ([2]; 500 ppm, pH 3.2 saccharin solution of SEV about 5%): enhances the sweetness to a greater degree alone than in combination with 2,4-DHB
O=C([O-])c1ccc(O)cc1O.[K+] [potassium salt of 2,4-DHB]	–	enhances the sweetness of the sucrose solution in every case	–	–
O=C([O-])c1ccc(O)cc1O.[Na+] [sodium salt of 2,4-DHB]	–	enhances the sweetness of the sucrose solution in every case	–	–
